# Data as given in publication PMC10725504, “The co-crystal structure of Cbl-b and a small-molecule inhibitor reveals the mechanism of Cbl-b inhibition” (Communications Biology, 2023).
# Biological target: T1, Cbl-b (Homo sapiens, UniProt Q13191)
# T1 construct: gene CBLB; TKBD-LHR-RING (38–427) and full-length (1–982)
# Assay: FP-based displacement assay (fluorescent probe)
# Assay type: binding
# T1 sequence (Q13191 38-427): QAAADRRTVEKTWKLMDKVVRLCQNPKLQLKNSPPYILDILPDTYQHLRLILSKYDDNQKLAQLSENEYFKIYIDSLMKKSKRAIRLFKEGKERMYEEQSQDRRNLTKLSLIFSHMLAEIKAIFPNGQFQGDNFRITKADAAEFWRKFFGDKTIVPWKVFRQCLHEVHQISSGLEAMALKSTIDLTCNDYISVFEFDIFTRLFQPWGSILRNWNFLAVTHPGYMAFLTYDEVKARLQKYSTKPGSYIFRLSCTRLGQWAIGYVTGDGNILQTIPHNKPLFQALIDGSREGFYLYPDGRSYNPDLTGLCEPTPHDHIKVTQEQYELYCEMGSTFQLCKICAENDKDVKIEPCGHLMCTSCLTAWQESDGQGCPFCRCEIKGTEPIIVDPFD
smiles,measurement,value
CC1=CC(C)=[N+]2C1=Cc1ccc(CCC(=O)NCCOCCOCCOCCNCc3ccc(C(=O)Nc4cccc([C@H](C)Cc5nncn5C)c4)nc3C3CC3)n1[B-]2(F)F [C7102],FP-based displacement assay (fluorescent probe),C7683 displaced binding of C7102 to both TKBD-LHR-RING and full-length proteins in a concentration dependent manner
